The results in this text go back to US7973166B2, “N-(2-aminophenyl)-4-[N-(pyridine-3-yl)-methoxycarbonyl-aminomethyl]-benzamide (MS-275) polymorph B” (Bayer Schering Pharma AG, priority 2008, dated 2011).

The nature of data set [1]: Thermodynamic stability of the solid state forms. The format is physicochemical. Conditions: at least in the relevant temperature range below 600 / below 60° C.
Data set [2] has as its system DU-145 Human Prostate Carcinoma. Put plainly: DU-145 human prostate carcinoma model in nude mice. The format is in vivo. To be noted: orally 10, 20 or 30 mg/kg in 30% HPβCD, tumor growth determined 27 to 56 days after tumor transplantation, versus vehicle control. The protocol:
The active compound was applied in 30% HPβCD. As control, a vehicle of DMSO/ethanol 1.1 in 0.085% Myrj/NaCl/30% HPβCD was used. The tumor growth was determined after 27 to 56 days after tumor transplantation.

Consider `Nc1ccccc1NC(=O)c1ccc(CNC(=O)OCc2cccnc2)cc1` [polymorph A, N-(2-aminophenyl)-4-[N-(pyridine-3-yl)methoxycarbonylamino-methyl]benzamide, reference compound], for which, in data set [1], the “thermodynamic stability of the polymorph” value is reported as “not the thermodynamically stable polymorph”.

Consider `Nc1ccccc1NC(=O)c1ccc(CNC(=O)OCc2cccnc2)cc1` [polymorph B, N-(2-aminophenyl)-4-[N-(pyridine-3-yl)methoxy-carbonylamino-methyl]benzamide], for which, in data set [2], the tumor growth entry was “clear inhibition”. The “thermodynamic stability of the polymorph” value in data set [1] is given as “thermodynamically stable polymorph”.
